From ChEMBL document CHEMBL1201862, “PubChem BioAssay data set” (2004)
The source made the active and inactive calls.

Legend:
[1] = target: T1, Mitochondrial peptide methionine sulfoxide reductase (Bos taurus, UniProt P54149); format: functional;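 note: absorbance read-out, biochemical high-throughput dose-response screen for MsrA inhibitors, confirmatory; recombinant bovine MsrA coupled to E. coli TrxB with NADPH and selenocystamine; potency is for inhibitors of MsrA activity on DMSO substrate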
T1 sequence (P54149 whole entry): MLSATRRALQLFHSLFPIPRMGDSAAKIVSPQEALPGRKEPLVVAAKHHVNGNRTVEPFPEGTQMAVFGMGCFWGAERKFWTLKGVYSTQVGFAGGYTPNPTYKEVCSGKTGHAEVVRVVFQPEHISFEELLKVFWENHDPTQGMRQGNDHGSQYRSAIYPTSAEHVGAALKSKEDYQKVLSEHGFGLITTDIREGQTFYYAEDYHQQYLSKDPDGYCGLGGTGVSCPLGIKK

[2] = inhibitors of firefly luciferase expression or activity, dose response, H4 neuroglioma cells, luminescence (AID 1990); format: functional, cell-based
[3] = Luminescence Cell-Based Dose Response HTS to Identify Inhibitors of 5'UTR Stem-Loop Driven Prion Protein mRNA Translation in H4 Neuroglioblastoma Cells. [Related pubchem assays: 1827 (Project Summary), 1813 (Primary HTS)]; format: functional
[4] = inhibitors of SNCA 5'UTR-driven reporter translation, confirmation, H4 neuroglioma cells, luminescence (AID 1988); format: functional, cell-based
[5] = test system: HEK293; assay: inhibitors of LMP1-driven NF-kB reporter, dose response, cell-based, HEK293, luciferase, cherry-pick (AID 588343); format: functional; conditions: Homo sapiens
[6] = HEp-2 cell cytotoxicity, dose response, cytotoxicity control for RSV inhibitor project, HTS (AID 2410); format: functional; conditions: human respiratory syncytial virus
[7] = test system: CHO-K1; assay: (§1) Counterscreen for antagonists of the orexin 1 receptor (OX1R; HCRTR1): Homogeneous time resolved fluorescence (HTRF)-based cell-based dose response assay to identify antagonists of the parental CHO-K1 cell line. [Related pubchem assays (depositor defined):AID434989, AID435008, AID463079, AID485270, AID492963, AID492964, AID492965, AID493232, AID504699, AID504701]; format: functional; conditions: Cricetulus griseus
[8] = as §1, with “Fluorescence-based” for “Homogeneous time resolved fluorescence (HTRF)-based”, “cell-based high throughput” for “cell-based”, “CHO” for “CHO-K1”; format: functional
[9] = target: T2, Orexin/Hypocretin receptor type 1 (Homo sapiens, UniProt O43613); assay: Homogeneous Time Resolved Fluorescence (HTRF)-based cell-based high throughput dose response assay for antagonists of the orexin 1 receptor (OX1R; HCRTR1). [Related pubchem assays (depositor defined):AID434989, AID435008, AID463079, AID485270, AID492963, AID492964, AID492965, AID493232, AID504717, AID504718]; format: functional
T2 sequence (O43613 whole entry): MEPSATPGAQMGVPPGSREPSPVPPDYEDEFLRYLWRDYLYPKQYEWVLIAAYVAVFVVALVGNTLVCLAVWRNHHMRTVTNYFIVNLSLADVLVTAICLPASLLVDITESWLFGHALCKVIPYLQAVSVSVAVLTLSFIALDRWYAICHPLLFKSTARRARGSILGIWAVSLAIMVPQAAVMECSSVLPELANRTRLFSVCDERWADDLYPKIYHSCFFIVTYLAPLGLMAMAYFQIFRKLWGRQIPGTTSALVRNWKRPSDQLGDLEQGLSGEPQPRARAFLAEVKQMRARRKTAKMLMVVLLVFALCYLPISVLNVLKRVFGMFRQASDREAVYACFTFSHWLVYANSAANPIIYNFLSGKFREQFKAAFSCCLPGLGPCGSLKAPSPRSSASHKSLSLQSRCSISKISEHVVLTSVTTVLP

[10] = target: T2, Orexin/Hypocretin receptor type 1; assay: Fluorescence-based cell-based high throughput dose response assay for antagonists of the orexin 1 receptor (OX1R; HCRTR1). [Related pubchem assays (depositor defined):AID434989, AID435008, AID463079, AID485270, AID492963, AID492964, AID492965, AID493232, AID504717, AID504718]; format: functional
[11] = target: T3, Endoribonuclease toxin MazF (Escherichia coli K-12, UniProt P0AE70); assay: MazF toxin RNase activators, dose response, biochemical, fluorescence, single-stranded RNA substrate, uHTS hits (AID 588481); format: functional
T3 sequence (P0AE70 whole entry): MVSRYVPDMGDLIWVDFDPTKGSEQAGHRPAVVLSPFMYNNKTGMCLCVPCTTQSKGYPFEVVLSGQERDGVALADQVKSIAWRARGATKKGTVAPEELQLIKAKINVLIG

[12] = target: T3, Endoribonuclease toxin MazF; assay: fluorescent RNA oligo signal without MazF, dose response, counter-screen for MazEF activator project, biochemical, fluorescence, single-stranded RNase substrate (AID 588502); format: functional
[13] = target: T4, Orexin receptor type 2 (Homo sapiens, UniProt O43614); assay: Counterscreen assay for antagonists of the orexin 1 receptor (OX1R; HCRTR1): Fluorescence-based cell-based dose response assay for antagonists of the orexin 2 receptor (OX2R; HCRTR2), run by assay provider.; format: functional
T4 sequence (O43614 whole entry): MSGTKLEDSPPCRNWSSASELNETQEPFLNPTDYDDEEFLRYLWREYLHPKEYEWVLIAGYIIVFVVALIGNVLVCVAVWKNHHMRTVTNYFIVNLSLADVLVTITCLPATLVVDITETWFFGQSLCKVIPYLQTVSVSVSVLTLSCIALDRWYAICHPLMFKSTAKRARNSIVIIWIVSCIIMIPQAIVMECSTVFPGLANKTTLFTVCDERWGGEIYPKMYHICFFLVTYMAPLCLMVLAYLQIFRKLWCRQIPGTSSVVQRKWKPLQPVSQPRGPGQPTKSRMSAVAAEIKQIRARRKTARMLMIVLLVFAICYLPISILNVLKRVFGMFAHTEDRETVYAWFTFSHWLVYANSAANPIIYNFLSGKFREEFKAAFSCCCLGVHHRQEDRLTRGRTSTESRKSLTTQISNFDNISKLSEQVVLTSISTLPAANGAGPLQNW

[14] = target: T4, Orexin receptor type 2; assay: Counterscreen assay for antagonists of the orexin 1 receptor (OX1R; HCRTR1): Homogeneous Time Resolved Fluorescence (HTRF)-based cell-based dose response assay for antagonists of the orexin 2 receptor (OX2R; HCRTR2), run by assay provider.; format: functional
[15] = NIH-3T3 fibroblast cytotoxicity, dose response, cytotoxicity control, cell-based, fluorescence, Alamar Blue, secondary assay (AID 2327); format: functional;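 note: NIH-3T3 mouse fibroblasts cultured with fluconazole at 8 µg/mL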
[16] = C. albicans growth with fluconazole, confirmation, fluorescence, retest (AID 2467); format: functional, cell-based
[17] = target: T5, Serine/threonine-protein phosphatase (Candida dubliniensis (strain CD36 / CBS 7987 / NCPF 3949 / NRRLY-17841) (Yeast), UniProt B9W6M3); assay: calcineurin pathway inhibitors in yeast reporter, dose response, S. cerevisiae, CDRE-lacZ, luminescence, secondary (AID 2388); format: functional, cell-based;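 note: yeast reporter cells carrying a calcineurin-responsive lacZ construct stimulated with calcium chloride; luminescent beta-galactosidase reporter signal in whole cells rather than isolated phosphatase activity; potency for inhibition where a drop in reporter signal means calcineurin blockade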
T5 sequence (B9W6M3 whole entry): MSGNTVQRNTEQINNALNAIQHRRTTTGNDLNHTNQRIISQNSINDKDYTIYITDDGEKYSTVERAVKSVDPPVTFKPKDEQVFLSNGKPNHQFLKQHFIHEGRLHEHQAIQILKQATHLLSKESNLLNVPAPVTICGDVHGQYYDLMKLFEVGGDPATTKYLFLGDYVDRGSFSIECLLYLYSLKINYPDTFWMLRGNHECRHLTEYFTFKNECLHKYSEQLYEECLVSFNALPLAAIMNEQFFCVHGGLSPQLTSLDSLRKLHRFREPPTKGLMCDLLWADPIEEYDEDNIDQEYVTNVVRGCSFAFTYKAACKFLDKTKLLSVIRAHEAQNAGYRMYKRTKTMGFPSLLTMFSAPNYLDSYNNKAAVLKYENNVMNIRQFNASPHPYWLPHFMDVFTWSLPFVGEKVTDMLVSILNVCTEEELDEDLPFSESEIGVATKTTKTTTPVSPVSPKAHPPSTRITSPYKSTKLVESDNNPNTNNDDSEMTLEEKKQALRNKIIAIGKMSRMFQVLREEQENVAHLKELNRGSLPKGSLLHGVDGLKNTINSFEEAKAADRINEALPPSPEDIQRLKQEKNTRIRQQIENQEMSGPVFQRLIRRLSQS

[18] = target: T6, Calpain-2 catalytic subunit (Sus scrofa, UniProt P43367); assay: pig calpain II inhibitor potency, dose response, biochemical, fluorogenic peptide substrate (AID 1420); format: functional
T6 sequence (P43367 whole entry): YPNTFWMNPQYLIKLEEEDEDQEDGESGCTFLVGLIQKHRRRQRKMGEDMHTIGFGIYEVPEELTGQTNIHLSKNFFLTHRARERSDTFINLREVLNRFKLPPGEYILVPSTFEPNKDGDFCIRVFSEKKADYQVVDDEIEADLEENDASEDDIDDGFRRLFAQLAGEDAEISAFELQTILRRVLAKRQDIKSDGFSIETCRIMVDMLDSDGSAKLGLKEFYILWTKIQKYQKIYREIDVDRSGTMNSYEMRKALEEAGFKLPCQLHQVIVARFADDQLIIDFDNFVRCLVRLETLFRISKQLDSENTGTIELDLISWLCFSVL

[19] = target: ATP-dependent molecular chaperone HSP82 (Candida albicans (strain WO-1) (Yeast), UniProt C4YTQ8); assay: loss of DOC-induced GRE-beta-galactosidase reporter signal, dose response, Hsp90 inhibitor project, S. cerevisiae, luminescence (AID 2400); format: functional, cell-based;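 note: beta-galactosidase luminescence from glucocorticoid response element reporter as proxy for Hsp90 function; inhibitor potency where signal loss means Hsp90 inhibition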
Chain of ATP-dependent molecular chaperone HSP82 (C4YTQ8 whole entry): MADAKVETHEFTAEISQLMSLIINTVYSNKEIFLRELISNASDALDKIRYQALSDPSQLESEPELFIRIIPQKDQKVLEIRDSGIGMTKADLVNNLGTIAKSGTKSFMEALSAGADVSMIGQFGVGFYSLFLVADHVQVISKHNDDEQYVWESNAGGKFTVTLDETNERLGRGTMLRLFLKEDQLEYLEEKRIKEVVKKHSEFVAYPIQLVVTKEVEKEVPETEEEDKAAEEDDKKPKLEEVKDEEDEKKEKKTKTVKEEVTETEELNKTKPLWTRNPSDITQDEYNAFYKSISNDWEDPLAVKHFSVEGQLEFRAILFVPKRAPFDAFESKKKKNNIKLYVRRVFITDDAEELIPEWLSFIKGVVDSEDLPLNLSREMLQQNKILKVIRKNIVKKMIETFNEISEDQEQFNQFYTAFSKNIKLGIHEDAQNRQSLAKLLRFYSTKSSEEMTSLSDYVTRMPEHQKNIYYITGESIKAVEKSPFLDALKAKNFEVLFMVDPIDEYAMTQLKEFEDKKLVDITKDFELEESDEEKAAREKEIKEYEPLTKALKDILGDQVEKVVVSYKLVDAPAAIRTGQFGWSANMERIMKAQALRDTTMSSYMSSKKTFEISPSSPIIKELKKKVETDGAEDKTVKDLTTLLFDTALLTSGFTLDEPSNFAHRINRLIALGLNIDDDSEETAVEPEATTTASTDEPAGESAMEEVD

## O=C(NN=Cc1sc(=O)[n-]c1-[n+]1ccc(-c2ccncc2)cc1)c1ccccc1
[1]
  IC50: 155 µM (inactive)

## Oc1c2c(nc3c(-c4cccc(Br)c4)cnn13)CCCC2
[2]
  EC50: 11.2 µM (active)
[3]
  EC50: 8.39 µM (active)
[4]
  EC50: 9.2 µM (active)
[5]
  AC50: 4.49 µM (active)

## Cc1cccc2c3nc4ccccc4nc3n(C)c12
[6]
  CC50: > 50 µM (active)
[7]
  IC50: > 66.2 µM (inactive)
[8]
  IC50: > 49.7 µM (inactive)
[9]
  IC50: 1.33 µM (active)
[10]
  IC50: 8.12 µM (active)
[11]
  EC50: > 99 µM (inactive)
[12]
  EC50: 51.9 µM (inactive)
[13]
  IC50: 11 µM (inactive)
[14]
  IC50: 5.76 µM (active)

## COCCCNC(=O)CCC(=O)NNc1nc2ccccc2c2nc(-c3ccccc3)nn12
[7]
  IC50: > 66.2 µM (inactive)
[8]
  IC50: > 49.7 µM (inactive)
[9]
  IC50: 3.55 µM (active)
[10]
  IC50: 11.7 µM (inactive)
[13]
  IC50: > 88.8 µM (inactive)
[14]
  IC50: > 50 µM (inactive)

## Cc1ccc(NC(=O)c2noc(C(C)C)c2[N+](=O)[O-])cc1
[15]
  EC50: > 150 µM (inconclusive)
[16]
  EC50: 3.18 µM (active)
[17]
  EC50: > 180 µM (inactive)
[18]
  IC50: > 50 µM (not active)
[19]
  EC50: > 160 µM (inactive)
